For 20 compounds, Ki results are on record in US20250122225A1, “MASP-2 INHIBITORS AND METHODS OF USE” (Omeros Corporation, priority 2023, published 2025).

Assay [1] concerns the target T1, MASP-2 (CCP1-CCP2-SP) (Homo sapiens, UniProt O00187).
T1 construct: 15 μL of Enzyme MASP-2 (CCP1-CCP2-SP) in Assay Buffer
Kind of assay: Enzymatic assay for MASP-2 inhibitory activity (fluorogenic substrate). The class given is biochemical. Here is the method: The MASP-2 assay utilizes a fluorogenic substrate, based on the cleavage site for its natural substrate C2. The assay was run at room temperature in an assay buffer containing 20 mM HEPES, pH 7.4, 140 mM NaCl and 0.1% Tween 20. Assay parameters were adjusted such that the assay was linear with respect to time, enzyme, and substrate concentrations. Under the optimized assays conditions, IC50 values were equivalent to Ki values, except in the few cases of “tight binding” inhibitors. Cases of “tight binding” or possible “slow binding” inhibitors were handled by the methods described in Copeland R. A. (2013) Evaluation of Enzyme Inhibitors in Drug Discovery. 2nd Ed., John Wiley and Sons, Inc., Chapters 5-7.
The MASP-2 assay protocol was carried out as follows. Test compounds were serially diluted in DMSO and then 100 nL of each dilution was transferred to the assay plate(s). 10 μL of Assay Buffer was added, followed by 15 μL of Enzyme MASP-2 (CCP1-CCP2-SP) in Assay Buffer. 15 μL of Substrate in Assay Buffer was then added and the mixture was mixed to start the reaction. After 20 min at room temperature, 15 μL of a stop solution (0.1 M acetic acid) was added, the sample was mixed, and the plates were read on a SpectraMax i3x Microplate Reader with the data exported as an Excel file. Each assay plate included a “no inhibitor” (DMSO only) control, a “no enzyme” control, and a reference inhibitor control. % Activity values=100*(average test comp. fluorescence−average “no enzyme” fluorescence)/(average “DMSO only” fluorescence−average “no enzyme” fluorescence). IC50 and Ki replicate values were very reproducible, with values well within ±2-fold.

Assay [2] has as its target T2, human α-thrombin (Homo sapiens, UniProt P00734).
T2 construct: enzyme (human α-thrombin (BioPharm® Lab.)) in assay buffer; purchased BioPharm® Lab
Kind of assay: Enzymatic assay for thrombin (fluorogenic peptide substrate Boc-VPR-AMC). Type of assay: biochemical. The protocol:
The thrombin assay utilizes a fluorogenic peptide substrate (Boc-VPR-AMC (R&D Systems) and was run at room temperature in an assay buffer containing 20 mM Hepes, pH 7.4, 140 mM NaCl and 0.1% Tween 20. Assay parameters were adjusted such that the assay was linear with respect to time, enzyme, and substrate concentrations. Under these optimized assays conditions, IC50 values were equivalent to Ki values, except in a few cases of “tight binding” inhibitors. Cases of “tight binding” or possible “slow binding” inhibitors were handled by the methods described in Copeland R. A. (2013) Evaluation of Enzyme Inhibitors in Drug Discovery. 2nd Ed. John Wiley and Sons, Inc., Chapters 5-7.
The thrombin assay protocol was carried out as follows. Test compounds were serially diluted in DMSO and then 100 nL of each dilution was transferred to the assay plate(s). 10 μL of Assay Buffer was added, followed by 15 μL of enzyme (human α-thrombin (BioPharm® Lab.)) in assay buffer. 15 μL of substrate in assay buffer was then added and the sample mixed to start the reaction. After 20 min at room temperature, 15 μL of a stop solution (0.1 M acetic acid) was added, the sample was mixed, and the plates were read on a SpectraMax® i3x Microplate Reader with the data exported as Excel files. Each assay plate included a “no inhibitor” (DMSO only) control, a “no enzyme” control, and a reference inhibitor control. % Activity values=100*(ave. test comp. fluorescence−ave. “no enz” fluorescence)/(ave. “DMSO only” fluorescence−ave. “no enz” fluorescence). IC50 and Ki values were very reproducible, with values falling well within ±2-fold.

Structures can show the parent of a compound that is named as a salt.

T1 sequence (O00187 445-686 limits assumed): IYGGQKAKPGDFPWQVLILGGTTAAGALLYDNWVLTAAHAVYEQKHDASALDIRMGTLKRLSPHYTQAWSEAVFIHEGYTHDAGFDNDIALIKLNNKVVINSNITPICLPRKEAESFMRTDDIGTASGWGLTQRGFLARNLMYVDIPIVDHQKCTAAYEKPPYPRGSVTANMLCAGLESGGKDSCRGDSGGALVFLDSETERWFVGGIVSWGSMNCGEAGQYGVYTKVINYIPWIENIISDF
T1 sequence (O00187 287-444 partner limits assumed): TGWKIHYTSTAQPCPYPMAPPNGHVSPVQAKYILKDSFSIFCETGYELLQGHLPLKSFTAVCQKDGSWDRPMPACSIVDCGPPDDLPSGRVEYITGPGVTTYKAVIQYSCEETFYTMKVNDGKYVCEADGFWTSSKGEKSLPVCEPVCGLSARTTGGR

Usually Ki stands for the dissociation constant of the complex between target and ligand, obtained from inhibition or displacement. Low readings indicate tighter binding, high ones weaker binding. On to `O=C(NCc1cc2cnccc2[nH]1)[C@@H]1CC2(CC2)c2c(Cl)nc(NCc3ccccc3)c(=O)n21` [Compound 128, (S)—N-((1H-pyrrolo[3,2-c]pyridin-2-yl)methyl)-3′-(benzylamino)-1′-chloro-4′-oxo-6′,7′-dihydro-4′H-spiro[cyclopropane-1,8′-pyrrolo[1,2-a]pyrazine]-6′-carboxamide], for which the results for the Ki in assay [1] and in assay [2] were less than 500 nM and 2500 to 10000 nM, respectively.

For the compound `Cc1nc(N)ccc1CNC(=O)[C@@H]1CCc2c(Cl)nc(NCC3CCOC3)c(=O)n21` (stereo partly drawn) [Compound 118, (6S)—N-((6-amino-2-methylpyridin-3-yl)methyl)-1-chloro-4-oxo-3-(((tetrahydrofuran-3-yl)methyl)amino)-4,6,7,8-tetrahydropyrrolo[1,2-a]pyrazine-6-carboxamide], the Ki in assay [1] was less than 500 nM; in assay [2], 10000 to 25000 nM.

With `Cc1cc(F)cc(CNc2nc(-c3cnn(C)c3)c3n(c2=O)[C@H](C(=O)NCc2ccc(N)nc2C)CC3)c1` [Compound 174, (S)—N-((6-amino-2-methylpyridin-3-yl)methyl)-3-((3-fluoro-5-methylbenzyl)amino)-1-(1-methyl-1H-pyrazol-4-yl)-4-oxo-4,6,7,8-tetrahydropyrrolo[1,2-a]pyrazine-6-carboxamide trifluoroacetate], the Ki is less than 500 nM in assay [1] and more than 25000 nM in assay [2].

In the case of `Cc1cc(F)cc(CNc2nc(-c3ccnn3C)c3n(c2=O)[C@H](C(=O)NCc2ccc(N)nc2C)CC3)c1` [Compound 175, (S)-N-((6-amino-2-methylpyridin-3-yl)methyl)-3-((3-fluoro-5-methylbenzyl)amino)-1-(1-methyl-1H-pyrazol-5-yl)-4-oxo-4,6,7,8-tetrahydropyrrolo[1,2-a]pyrazine-6-carboxamide trifluoroacetate], the Ki in assay [1] was less than 500 nM; in assay [2] it was 500 to 2500 nM.

With `Cc1cc(F)cc(CNc2ncc3n(c2=O)[C@H](C(=O)NCc2cnc4ccccn24)CC3)c1` [Compound 204, trifluoroacetate], the figures for the Ki in assay [1] and in assay [2] were 2500 to 10000 nM and more than 25000 nM, respectively.

Consider `Cc1cc(C)cc(CNc2ncc3n(c2=O)[C@H](C(=O)NCc2cc4cnccc4[nH]2)CC3)c1` [Compound 97, (S)—N-((1H-pyrrolo[3,2-c]pyridin-2-yl)methyl)-3-((3,5-dimethylbenzyl)amino)-4-oxo-4,6,7,8-tetrahydropyrrolo[1,2-a]pyrazine-6-carboxamide trifluoroacetate], for which the Ki in assay [1] is less than 500 nM; in assay [2], 500 to 2500 nM.

Regarding `Nc1nc(Cl)c2n(c1=O)[C@H](C(=O)NCc1cc3cnccc3[nH]1)CC21CCCC1` [Compound 232, (S)—N-((1H-pyrrolo[3,2-c]pyridin-2-yl)methyl)-3′-amino-1′-chloro-4′-oxo-6′,7′-dihydro-4′H-spiro[cyclopentane-1,8′-pyrrolo[1,2-a]pyrazine]-6′-carboxamide trifluoroacetate], the Ki is 500 to 2500 nM in assay [1] and more than 25000 nM in assay [2].

Take `Cc1cccc(CNc2nc(Cl)c3n(c2=O)[C@H](C(=O)NCc2cc4cnccc4[nH]2)CC3)c1C` [Compound 15, (S)-N-((1H-pyrrolo[3,2-c]pyridin-2-yl)methyl)-1-chloro-3-((2,3-dimethylbenzyl)amino)-4-oxo-4,6,7,8-tetrahydropyrrolo[1,2-a]pyrazine-6-carboxamide]: the inhibition constant (Ki) in assay [1] is less than 500 nM; in assay [2], 2500 to 10000 nM.

Regarding `Cc1cc(F)cc(CNc2ncc3n(c2=O)[C@H](C(=O)N[C@H](C)c2ccc(N)nc2)CC3)c1` [Compound 191, (S)-N-((R)-1-(6-aminopyridin-3-yl)ethyl)-3-((3-fluoro-5-methylbenzyl)amino)-4-oxo-4,6,7,8-tetrahydropyrrolo[1,2-a]pyrazine-6-carboxamide trifluoroacetate], the figures for the Ki in assay [1] and in assay [2] were less than 500 nM and 2500 to 10000 nM, respectively.

Turning to `Cc1nc(N)ccc1CNC(=O)[C@@H]1CCc2cnc(NCc3cccc(S(C)(=O)=O)c3)c(=O)n21` [Compound 99, (S)—N-((6-amino-2-methylpyridin-3-yl)methyl)-3-((3-(methylsulfonyl)benzyl)amino)-4-oxo-4,6,7,8-tetrahydropyrrolo[1,2-a]pyrazine-6-carboxamide trifluoroacetate], the Ki in assay [1] and in assay [2] was less than 500 nM each time.

Take `Cc1ccccc1[C@@H](C)Nc1ncc2n(c1=O)[C@H](C(=O)NCc1cc3cnccc3[nH]1)CC2` [Compound 81, (S)-N-((1H-pyrrolo[3,2-c]pyridin-2-yl)methyl)-4-oxo-3-(((R)-1-(0-tolyl)ethyl)amino)-4,6,7,8-tetrahydropyrrolo[1,2-a]pyrazine-6-carboxamide]: the Ki in assay [1] and in assay [2] was less than 500 nM in each case.

Take `Cc1cc(C)cc(CNc2ncc3n(c2=O)[C@H](C(=O)NCc2ccc(N)nc2C)CC3)c1` [Compound 36, (S)—N-((6-amino-2-methylpyridin-3-yl)methyl)-3-((3,5-dimethylbenzyl)amino)-4-oxo-4,6,7,8-tetrahydropyrrolo[1,2-a]pyrazine-6-carboxamide]: the Ki in assay [1] and in assay [2] was less than 500 nM each time.

As to `COc1cc(C)cc(CNc2ncc3n(c2=O)[C@H](C(=O)NCc2cc4c(s2)CNC4)CC3)c1` [Compound 91, (S)-N-((5,6-dihydro-4H-thieno[2,3-c]pyrrol-2-yl)methyl)-3-((3-methoxy-5-methylbenzyl)amino)-4-oxo-4,6,7,8-tetrahydropyrrolo[1,2-a]pyrazine-6-carboxamide], the Ki in assay [1] and in assay [2] was less than 500 nM each time.

Turning to `CCC[C@@H](Nc1ncc2n(c1=O)[C@H](C(=O)NCc1cc3c(s1)CNC3)CC2)c1ccccc1` [Compound 258], the Ki in assay [1] and in assay [2] was less than 500 nM throughout.

In the case of `Cc1cc(C)cc(CNc2nc(Cl)c3n(c2=O)[C@H](C(=O)NCc2cccnc2C)CC3)c1` [Compound 89, trifluoroacetate], the Ki in assay [1] is 2500 to 10000 nM; in assay [2], more than 25000 nM.

With `Cc1ccccc1CNc1ncc2n(c1=O)[C@H](C(=O)NCc1ccc(N)nc1C)CC2` [Compound 52, (S)-N-((6-amino-2-methylpyridin-3-yl)methyl)-3-((2-methylbenzyl)amino)-4-oxo-4,6,7,8-tetrahydropyrrolo[1,2-a]pyrazine-6-carboxamide], the Ki in assay [1] and in assay [2] was less than 500 nM in each case.

As for `CC[C@H]1C[C@@H](C(=O)NCc2cc3cnccc3[nH]2)n2c1cnc(NCc1ccccc1)c2=O` [Compound 151, (6S,8S)—N-((1H-pyrrolo[3,2-c]pyridin-2-yl)methyl)-3-(benzylamino)-8-ethyl-4-oxo-4,6,7,8-tetrahydropyrrolo[1,2-a]pyrazine-6-carboxamide], the inhibition constant Ki is less than 500 nM in assay [1] and 500 to 2500 nM in assay [2].

Consider `Cc1cc(C)cc([C@@H](CO)Nc2ncc3n(c2=O)[C@H](C(=O)NCc2ccc(N)nc2C)CC3)c1` [Compound 76, (S)-N-((6-amino-2-methylpyridin-3-yl)methyl)-3-(((S)-1-(3,5-dimethylphenyl)-2-hydroxyethyl)amino)-4-oxo-4,6,7,8-tetrahydropyrrolo[1,2-a]pyrazine-6-carboxamide], for which the Ki in assay [1] and in assay [2] was less than 500 nM each time.

Turning to `CC[C@H]1C[C@@H](C(=O)NCc2ccc(N)nc2C)n2c1cnc(NCc1cc(C)cc(C)c1)c2=O` [Compound 156, (6S,8S)-N-((6-amino-2-methylpyridin-3-yl)methyl)-3-((3,5-dimethylbenzyl)amino)-8-ethyl-4-oxo-4,6,7,8-tetrahydropyrrolo[1,2-a]pyrazine-6-carboxamide], the Ki in assay [1] and in assay [2] was less than 500 nM throughout.

As to `COc1cccc(CNc2ncc3n(c2=O)[C@H](C(=O)NCc2cc4cnccc4[nH]2)CC3)c1` [Compound 39, (S)-N-((1H-pyrrolo[3,2-c]pyridin-2-yl)methyl)-3-((3-methoxybenzyl)amino)-4-oxo-4,6,7,8-tetrahydropyrrolo[1,2-a]pyrazine-6-carboxamide trifluoroacetate], the Ki in assay [1] was less than 500 nM; in assay [2], 2500 to 10000 nM.
